Test results: PubChem BioAssay AID1963969 (Molecular Pharmacology Branch, DTP, NCI, 2024)
Several values for one entry are separate records, joined by “and”; a condition that tells them apart may be missing. Equal values may be shown once.

Tested on: 817829-284-R-J1-PDC multi-cell spheroid viability
Assay: Anticancer human tumor 817829-284-R-J1-PDC patient-derived colon adenocarcinoma cell line growth inhibition [PI3K]
Details: for viability, T/C: stronger effect = lower value; active = viability on the fitted dose curve at most 10% of control; inactive = the rest
Excerpt: Combinatorial screen of targeted agents with the PI3K inhibitors inavolisib, alpelisib, duvelisib, and copanlisib in multi-cell type tumor spheroids
A high-throughput screen of multi-cell type tumor spheroids was designed to identify active combinations of targeted small molecules and PI3K pathway inhibitors. Complex spheroids include a stromal component modeled by human endothelial cells (HUVEC) and fibroblasts modeled by human mesenchymal stem cells (MSCs). The concentration ranges selected for each drug and investigational agent were based upon clinically achievable concentrations if the clinical Cmax of the agent was known.
Compounds. The drugs and investigational agents: inavolisib (NSC800729), alpelisib (NSC765974), duvelisib (NSC772469), copanlisib (NSC816437), ipatasertib (NSC767898), afuresertib (NSC778305), talazoparib (NSC767125), sapanisertib (NSC764658), selumetinib (NSC741078), tovorafenib (DAY101, NSC766906), vemurafenib (NSC761431), ravoxertinib (NSC781343), sotorasib (NSC818433), MRTX1133 (NSC 836407), abemaciclib (NSC 768073), palbociclib (NSC758247), venetoclax (NSC 766270), SY5609 (NSC837396), enzalutamide (NSC755605), and darolutamide (NSC825331), were obtained from the National Cancer Institute (NCI) Developmental Therapeutics Program Chemical Repository. The FDA-approved anticancer drug set is available from the NCI Developmental Therapeutics Program. […] The stock solutions were prepared in dimethyl sulfoxide (DMSO, Sigma-Aldrich, St. Louis, MO, cat. D2650) at 800-fold the tested concentration and stored at -70 degrees C prior to their use. All drugs and investigational agents were tested over a range starting from a high concentration at or near the clinical Cmax and decreasing in half-log increments. If the clinical Cmax for an agent had not been determined, the highest concentration tested was 10 microM.
Cell Culture. All cells were maintained in an incubator at 37 degrees C and 5% CO2 with 95% humidity. The PDC lines were cultured according to standard operating procedures established by the NCI PDMR (https://pdmr.cancer.gov/sops/default.htm). All PDCs were thawed and cultured in Matrigel-coated flasks prepared with a working solution of 1X Ham's F-12 nutrient mix, without supplementation (Invitrogen, Waltham, MA, cat. 11765054), 100 U/mL penicillin-streptomycin (Invitrogen, cat. 15140122), and 2.5% Matrigel (Corning Inc., Corning, NY, cat. 354248) for the first three passages. The 354836-022-R-J1-PDC, 475296-252-R-J1-PDC, and 997726-040-R-J2-PDC lines were cultured in 6A media, which includes advanced DMEM/F-12 (Thermo Fisher Scientific, cat. 12634028), 10 mM HEPES (Thermo Fisher Scientific, cat. 15630080), 1X GlutaMAX supplement (Thermo Fisher Scientific, cat. 35050061), 0.1 mg/mL primocin (InvivoGen, San Diego, CA, cat. ant-pm-2), 10% defined fetal bovine serum, heat inactivated (HyClone Laboratories Inc., Logan, UT, cat. SH30070.03HI), 50% L-WRN conditioned media (ATCC, cat. CRL-3276), 1.25 mM N-Acetyl-L-cysteine (Sigma-Aldrich, cat. A9165), 10 mM nicotinamide (Sigma-Aldrich, cat. N0636), 1X B-27 supplement (Thermo Fisher Scientific, cat. 17504044), 1X N-2 supplement (Thermo Fisher Scientific, cat. 17502048), and 10 microM Y-27632 dihydrochloride (Tocris Bioscience, Bristol, United Kingdom, cat. 1254). The 624824-186-R-J2-PDC line was cultured in 6C/Colon 1B media, which includes all 6A media components plus 50 ng/mL human EGF recombinant protein (Thermo Fisher Scientific, cat. PHG0311). […]

[1] = curve of first compound, second compound 0.0316 µM
[2] = curve of first compound, second compound 0.1 µM
[3] = curve of first compound, second compound 0.316 µM
[4] = curve of first compound, second compound 1 µM
[5] = second compound 0.0316 µM, first compound 0.0316 µM
[6] = second compound 0.0316 µM, first compound 0.1 µM
[7] = second compound 0.0316 µM, first compound 0.316 µM
[8] = second compound 0.0316 µM, first compound 1 µM
[9] = second compound 0.0316 µM, first compound 3.16 µM
[10] = second compound 0.0316 µM, first compound 10 µM
[11] = second compound 0.1 µM, first compound 0.0316 µM
[12] = second compound 0.1 µM, first compound 0.1 µM
[13] = second compound 0.1 µM, first compound 0.316 µM
[14] = second compound 0.1 µM, first compound 1 µM
[15] = second compound 0.1 µM, first compound 3.16 µM
[16] = second compound 0.1 µM, first compound 10 µM
[17] = second compound 0.316 µM, first compound 0.0316 µM
[18] = second compound 0.316 µM, first compound 0.1 µM
[19] = second compound 0.316 µM, first compound 0.316 µM
[20] = second compound 0.316 µM, first compound 1 µM
[21] = second compound 0.316 µM, first compound 3.16 µM
[22] = second compound 0.316 µM, first compound 10 µM
[23] = second compound 1 µM, first compound 0.0316 µM
[24] = second compound 1 µM, first compound 0.1 µM
[25] = second compound 1 µM, first compound 0.316 µM
[26] = second compound 1 µM, first compound 1 µM
[27] = second compound 1 µM, first compound 3.16 µM
[28] = second compound 1 µM, first compound 10 µM
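Also: spheroids exposed to agents for seven days before readout.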
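For viability, T/C in this document: percent of vehicle DMSO control viability which is 100%.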

CCCS(=O)(=O)Nc1ccc(F)c(C(=O)c2c[nH]c3ncc(-c4ccc(Cl)cc4)cc23)c1F + COc1c(OCCCN2CCOCC2)ccc2c3n(c(=NC(=O)c4cnc(N)nc4)nc12)CCN3
inactive: viability, T/C (second compound 0.00316 µM, first compound 0.0316 µM) 117% | viability, T/C (second compound 0.00316 µM, first compound 0.1 µM) 87% | viability, T/C (second compound 0.00316 µM, first compound 0.316 µM) 71.5% | viability, T/C (second compound 0.00316 µM, first compound 1 µM) 66.4% | viability, T/C (second compound 0.00316 µM, first compound 3.16 µM) 59.5% | viability, T/C (second compound 0.00316 µM, first compound 10 µM) 10.7% | viability, T/C (second compound 0.01 µM, first compound 0.0316 µM) 104% | viability, T/C (second compound 0.01 µM, first compound 0.1 µM) 53.6% | viability, T/C (second compound 0.01 µM, first compound 0.316 µM) 66.5% | viability, T/C (second compound 0.01 µM, first compound 1 µM) 70.9% | viability, T/C (second compound 0.01 µM, first compound 3.16 µM) 64.1% | viability, T/C [5] 45.4% | viability, T/C [6] 70% | viability, T/C [7] 43.8% | viability, T/C [8] 64.1% | viability, T/C [9] 47.9% | viability, T/C [10] 10.2% | viability, T/C [11] 34.4% | viability, T/C [12] 39.3% | viability, T/C [13] 71.2% | viability, T/C [14] 26.8% | viability, T/C [15] 28.2% | viability, T/C [16] 14.4% | viability, T/C [17] 21.7% | viability, T/C [18] 19.6% | viability, T/C [19] 21.3% | viability, T/C [20] 16% | viability, T/C [21] 16.1% | viability, T/C [22] 9.88% | viability, T/C [23] 10% | viability, T/C [24] 14.3%
31.6 nM: IC50 [2]
< 31.6 nM: IC50 [3] | IC50 [4]
active: viability, T/C (second compound 0.01 µM, first compound 10 µM) 8.97% | viability, T/C [25] 8.54% | viability, T/C [26] 6.57% | viability, T/C [27] 9.78% | viability, T/C [28] 4.54%
1900 nM: IC50 (curve of first compound, second compound 0.00316 µM)
2300 nM: IC50 [1]
4240 nM: IC50 (curve of first compound, second compound 0.01 µM)

Cn1nccc1Nc1nccc(-c2ccn(C(CO)c3ccc(Cl)c(F)c3)c(=O)c2)n1 (stereo unspecified)
inactive: viability, T/C (compound 0.0316 µM) 100% and 96.5% | viability, T/C (compound 0.1 µM) 68.5% and 79.2% | viability, T/C (compound 0.316 µM) 84.3% and 83.6% | viability, T/C (compound 1 µM) 110% and 86.8% | viability, T/C (compound 3.16 µM) 71.2% and 81.6% | viability, T/C (compound 10 µM) 26% and 39.2%
5420 nM and 7460 nM: IC50 (curve of compound)

CC(Cn1ccc(-c2ccc(C#N)c(Cl)c2)n1)NC(=O)c1cc(C(C)O)[nH]n1 (stereo unspecified) + Cc1nc(NC(=O)N2CCCC2C(N)=O)sc1-c1ccnc(C(C)(C)C(F)(F)F)c1
2620 nM: IC50 [4]
inactive: viability, T/C [5] 72.1% | viability, T/C [6] 92.1% | viability, T/C [7] 118% | viability, T/C [8] 82.5% | viability, T/C [9] 64.8% | viability, T/C [10] 67.4% | viability, T/C [11] 42.2% | viability, T/C [12] 81.5% | viability, T/C [13] 96.1% | viability, T/C [14] 103% | viability, T/C [15] 85.2% | viability, T/C [16] 71.1% | viability, T/C [17] 56.9% | viability, T/C [18] 94.3% | viability, T/C [19] 72.3% | viability, T/C [20] 72.1% | viability, T/C [21] 75.8% | viability, T/C [22] 54.4% | viability, T/C [23] 53.1% | viability, T/C [24] 89.8% | viability, T/C [25] 80.5% | viability, T/C [26] 71.5% | viability, T/C [27] 42.1% | viability, T/C [28] 49.5% | viability, T/C (second compound 3.16 µM, first compound 0.0316 µM) 66.7% | viability, T/C (second compound 3.16 µM, first compound 0.1 µM) 55.2% | viability, T/C (second compound 3.16 µM, first compound 0.316 µM) 50.1% | viability, T/C (second compound 3.16 µM, first compound 1 µM) 89.7% | viability, T/C (second compound 3.16 µM, first compound 3.16 µM) 42% | viability, T/C (second compound 3.16 µM, first compound 10 µM) 57.2% | viability, T/C (second compound 10 µM, first compound 0.0316 µM) 55.8% | viability, T/C (second compound 10 µM, first compound 0.1 µM) 31.7% | viability, T/C (second compound 10 µM, first compound 0.316 µM) 47.2% | viability, T/C (second compound 10 µM, first compound 1 µM) 40.9% | viability, T/C (second compound 10 µM, first compound 3.16 µM) 59.4% | viability, T/C (second compound 10 µM, first compound 10 µM) 35%
> 10000 nM: IC50 [1] | IC50 [3] | IC50 (curve of first compound, second compound 3.16 µM)
< 31.6 nM: IC50 [2] | IC50 (curve of first compound, second compound 10 µM)
